This data set relates to B16F10 cells. Briefly: Cell proliferation / cytotoxicity (Incucyte) with and without light irradiation. Type of data set: cell-based, murine. The settings on record: B16F10, 10 uM. On the procedure: Murine melanoma B16F10 cells were seeded at 3000-4000 cells per well in 96 well black view plate Perkin Elmer plates in DMEM media without phenol, as phenol red may interfere in the absorption of light. After overnight incubation, media was aspirated from the wells and varying concentrations of photosensitizers were added to the cells. Cells were incubated for 4 hours in dark at 37° C., after 4 hours cells were washed twice with 1×PBS and 300 μL of media was added to the wells before placing the plates in Incucyte ZOOM Live cell imaging machine to capture the images after every hour. Percentage confluence was measured over a time period. Similar approach was taken for keratinocyte cell lines NTERT-1 except the starting confluence was 75-85%. This is to mimic the physiological situation in the body where keratinocytes are present in much larger numbers than melanocytes. […]
Mouse melanoma cells B16-F10, human skin keratinocytes N-TERT-1 and primary human melanocytes MeL at cell densities of 4000 cells/well, 6000 cells/well and 3500 cells/well respectively were seeded to achieve similar starting confluence in 96-black Perkin-Elmer well plate in DMEM medium without phenol red (for B16F10 and MeL) and KSFM media (for N/TERT-1 cells) and kept for overnight at 37° C. […] Percentage confluence was measured over a time period. […]

For the compound `CN(C)c1ccc2nc3ccc(=[N+](C)C)cc-3sc2c1` [MB, methylene blue], the cytotoxicity in dark entry was “no cytotoxicity”.
